Source: US7585939B2, “Chromatin peptides blocking human HIF-1α gene and modulating the downstream related genes” (Geneblue Corporation, priority 2005, dated 2009)
Where no end group is shown, it is not given here.

How the values were obtained:
small cell lung cancer = test: Treatment of patient with small cell lung cancer with micrometastasis to liver; assay type: in vivo, human patient; settings: 5 mg i.v. every 10 days
Protocol: Patient with small cell lung cancer, at middle and advanced stage, had micrometastasis to liver. […] Administer intravenous injection every 10 days, with 5 mg each time. 15 days later, dyspnoea and referred pain all vanished.

[1] = tested on: human breast cancer cell line 0404 MDA-MB-435; test: MDA-MB-435 human breast cancer animal model in BALB/c-nu nude mice; assay type: in vivo, BALB/c-nu female nude mice
Protocol: The experiment animals with tumor size of 100-200 MM^3 were randomized into four groups, at the 14th day after inoculation of cancer cells. There were 16 mice in each group, treated with different doses of low (0.5 mg/kg), medium (2 mg/kg), and high (5 mg/kg). The control group was treated with normal saline. Administer injection to the tumor surroundings every day after inoculation. The growth tumor volume was measured every 3 days. All experiment mice were killed at the 21st day; tumor growth rate was measured by volume and weight.

Breast cancer = test: Treatment of breast cancer in dogs; assay type: in vivo; settings: 0.5 mg injected directly to the tumor every 15 days; 20th day
Protocol: Breast cancer were found in dogs, with tumor size of 45 mm×50 mm. NH2-Lys Arg Ala Ser Arg Asn Lys Ser Glu Lys Lys Arg Arg-COOH (SEQ ID NO: 20) was directly injected to the tumor, with 0.5 mg each time, and administration was given every 15 days.

[2] = tested on: lung cancer existing carcinomatous metastasis to marrow; test: Treatment of patient with lung cancer with metastasis to marrow; assay type: in vivo, human patient; settings: 2 mg i.v. every 5 days
Protocol: Patient with lung cancer existing carcinomatous metastasis to marrow conducted radiotherapy. […] Intravenous injections were given every 5 days, with a dose of 2 mg each time, and one month as a course of treatment. In addition, antibiotics were accompanied to control complicated infection.

[3] = tested on: highly metastatic tumor HCT of human colon carcinoma cell line
Protocol: The highly metastatic tumor HCT of human colon carcinoma cell line was inoculated into the forelimb armpit of BALB/c-nu, a kind of female nude mouse, with amount of 5 million tumor cells/per mouse. Five days later, the area of tumor cells implanted was directly treated by injection with the above-mentioned 14 mer peptide solution, by a dose of 5 mg/kg daily. The drug treatment group and control (saline) group were set up, with 25 mice in each side. The experiment mice were killed after 21 days, measuring the tumor weight. After weighing the tumor taken from each mouse, keep it in 4% formaldehyde. Paraffin section shed paraffin for 10 minutes through xylene, then deal with alcohol, stain in hematoxylin, and then stains with 0.5% eosine ethanol. After that, mount with neutral gum. Analyze under microscope and take films.

[4] = with radiotherapy and antibiotics

For “NH2-Arg Lys Glu Lys Ser Arg Asp Ala Ala Arg Cys Arg Arg-COOH (H-RKEKSRDAARCRR-OH) [13mer peptide]”, the “microscopic repeated test of sputum” value (small cell lung cancer; 90th day) was “no malignant cells falling off”, the biopsy (small cell lung cancer; 100th day) was “no malignant cells” and the “dyspnoea and referred pain” value (small cell lung cancer; 15 days later) was “all vanished”.

For “NH2-Arg Lys Glu Lys Ser Arg Asp Ala Ala Arg-COOH (H-RKEKSRDAAR-OH) [10 mer peptide]”, the “breast cancer growth in the animal model” value ([1]; conclusion from Table 4) was “inhibit breast cancer growth”, the “The volume of tumor sizes on average” value ([1]; high dose 5 mg/kg daily, 3rd day) was 1.408 CM^3 and the “The volume of tumor sizes on average” value ([1]; high dose 5 mg/kg daily, 7th day) was 1.461 CM^3. For the same substance, the “The volume of tumor sizes on average” value ([1]; high dose 5 mg/kg daily, 10th day) was 1.253 CM^3, the “The volume of tumor sizes on average” value ([1]; high dose 5 mg/kg daily, 14th day) was 2.211 CM^3 and the “The volume of tumor sizes on average” value ([1]; high dose 5 mg/kg daily, 17th day) was 2.3635 CM^3. For the same substance, the “The volume of tumor sizes on average” value ([1]; high dose 5 mg/kg daily, 21st day) was 1.793 CM^3, the “The volume of tumor sizes on average” value ([1]; low dose 0.5 mg/kg daily, 3rd day) was 1.475 CM^3 and the “The volume of tumor sizes on average” value ([1]; low dose 0.5 mg/kg daily, 7th day) was 3.313 CM^3. For the same substance, the “The volume of tumor sizes on average” value ([1]; low dose 0.5 mg/kg daily, 10th day) was 4.97 CM^3, the “The volume of tumor sizes on average” value ([1]; low dose 0.5 mg/kg daily, 14th day) was 7.668 CM^3 and the “The volume of tumor sizes on average” value ([1]; low dose 0.5 mg/kg daily, 17th day) was 8.482 CM^3. For the same substance, the “The volume of tumor sizes on average” value ([1]; low dose 0.5 mg/kg daily, 21st day) was 8.953 CM^3, the “The volume of tumor sizes on average” value ([1]; medium dose 2 mg/kg daily, 3rd day) was 1.295 CM^3 and the “The volume of tumor sizes on average” value ([1]; medium dose 2 mg/kg daily, 7th day) was 2.133 CM^3. The “The volume of tumor sizes on average” value ([1]; medium dose 2 mg/kg daily, 10th day) was 2.721 CM^3, the “The volume of tumor sizes on average” value ([1]; medium dose 2 mg/kg daily, 14th day) was 4.879 CM^3 and the “The volume of tumor sizes on average” value ([1]; medium dose 2 mg/kg daily, 17th day) was 6.274 CM^3. For the same substance, the “The volume of tumor sizes on average” value ([1]; medium dose 2 mg/kg daily, 21st day) was 6.119 CM^3.

For “NH2-Lys Arg Ala Ser Arg Asn Lys Ser Glu Lys Lys Arg Arg-COOH (H-KRASRNKSEKKRR-OH) [SEQ ID NO: 20]”, the “tumor (size 45 mm×50 mm)” value (Breast cancer) was “Tumor disappeared”.

For RRKEKSRDAARSRR [14 mer peptide], the cancer status ([2]; one month as a course) was “cancer free three months later”, the Skeleton ache symptom [2, 4] was “decreased after five days” and the osteodynia [2, 4] was “disappeared 20 days later”. The “experiment mice in the treatment group with tumors totally disappeared” value ([3]; 5 mg/kg daily injected at tumor area from day 5, killed after 21 days, 25 mice per group) was “four” and the “pathological section of tumor” value ([3]; 5 mg/kg daily, treatment group vs saline control, FIG. 1(A)/1(B)) was “a lot of apoptotic bodies and cell debris were found in the central part of the tumor”.
